What was measured:
[1] = test system: lower epidermis of Commelina benghalensis L.; assay: Stomatal opening promoting activity in a dark place (stomatal aperture of peeled lower epidermis); assay type: cell-based; settings: for Stomatal Aperture: dark place 3 hours
Method: (§1) The lower epidermis of Commelina benghalensis L. was peeled off, immersed in the stomatal aperture measurement solution, and allowed to stand still in a dark place for 2 hours. Then, the lower epidermis of Commelina benghalensis L. was immersed in test solutions prepared by adding steviol to the stomatal aperture measurement solution to give 100 or 300 μM (final concentration) or in the stomatal aperture measurement solution without the addition of steviol (Comparative Example 1), and allowed to stand still in a bright place for 3 hours. The lower epidermis of Commelina benghalensis L. after immersion in the test solutions was photographed with a digital camera (LCD (Liquid Crystal Display), manufactured by KENIS LIMITED) attached to a microscope (Olympus BH2; objective lens SPlan 10 [manufactured by Olympus Corporation] magnification 200×). The stomatal aperture was measured with measurement software (digital microanalyzer, manufactured by Nippon Polaroid Corporation; Polaroid is the registered trademark). The stomatal aperture was measured for 80 or more stomata, for each addition concentration. The stomatal aperture obtained at each addition concentration was compared with the stomatal aperture obtained without the addition of steviol (0 μM, Comparative Example 1), and statistical analysis was performed by student's t-test.
(§2) The lower epidermis of Commelina benghalensis L. that had been peeled off was immersed in the stomatal aperture measurement solution, and allowed to stand still in a dark place for 2 hours. Then, the lower epidermis of Commelina benghalensis L. was immersed in test solutions prepared by adding steviol to the stomatal aperture measurement solution to give 200 or 300 μM (final concentration) or in the stomatal aperture measurement solution without the addition of steviol (Comparative Example 4), and allowed to stand still in a dark place for 3 hours. Then, the stomatal aperture was measured as in Example 1.
as §2, with “stevioside” for “steviol”, “give 100,” for “give”, “5),” for “4),”
as §2, with “rebaudioside A” for “steviol”, “10, 100, 300,” for “200”, “500” for “300”, “6),” for “4),”
as §2, with “FARM A” for “steviol”, “a 2,000-, 1,000-,” for “200”, “500-fold dilution” for “300 μM”, “7),” for “4),”

[2] = test system: lower epidermis of Commelina benghalensis L.; assay: Abscisic acid-induced stomatal closure inhibitory activity, first evaluation (stomatal aperture of peeled lower epidermis); assay type: cell-based; settings: for Stomatal Aperture: 2 hours
Method: as §1
The lower epidermis of Commelina benghalensis L. was peeled off, immersed in the stomatal aperture measurement solution, and allowed to stand still in a bright place for 3 hours. Then, the lower epidermis of Commelina benghalensis L. was immersed in test solutions prepared by adding 10 μM (final concentration) of abscisic acid and 400 or 600 μM of steviol to the stomatal aperture measurement solution or in the stomatal aperture measurement solution without the addition of steviol (Comparative Example 8) prepared by adding 10 μM (final concentration) of abscisic acid alone, and allowed to stand still for 2 hours. Then, the stomatal aperture was measured as in Example 1.
(§3) The lower epidermis of Commelina benghalensis L. was peeled off, immersed in the stomatal aperture measurement solution, and allowed to stand still in a bright place for 3 hours. Then, the lower epidermis of Commelina benghalensis L. was immersed in test solutions prepared by adding 10 μM (final concentration) of abscisic acid and 300 or 800 μM (final concentration) of stevioside to the stomatal aperture measurement solution or in the stomatal aperture measurement solution without the addition of stevioside (Comparative Example 9) prepared by adding 10 μm (final concentration) of abscisic acid alone, and allowed to stand still for 2 hours. Then, the stomatal aperture was measured as in Example 1.
as §3, with “100, 300,” for “300”, “500” for “800”, “rebaudioside A” for “stevioside”, “10)” for “9)”
The lower epidermis of Commelina benghalensis L. was peeled off, immersed in the stomatal aperture measurement solution, and allowed to stand still in a bright place for 3 hours. […]

[3] = addition concentration 300 μM with 10 μM abscisic acid

Compound | Stomatal Aperture ([1]; addition concentration 10 μM) [μm] | Stomatal Aperture ([1]; addition concentration 100 μM) [μm] | Stomatal Aperture ([1]; addition concentration 300 μM) [μm] | Stomatal Aperture ([1]; addition concentration 500 μM) [μm] | stomatal aperture as compared to without the addition (student's t-test) ([1]; every concentration (10, 100, 300, 500 μM), dark place) | stomatal aperture as compared to without the addition (student's t-test) ([2]; 100, 300, or 500 μM with 10 μM abscisic acid) | Stomatal Aperture ([2]; addition concentration 100 μM with 10 μM abscisic acid) [μm] | Stomatal Aperture [2, 3] [μm] | Stomatal Aperture ([2]; addition concentration 500 μM with 10 μM abscisic acid) [μm] | stomatal aperture as compared to without the addition (student's t-test) ([1]; 200 or 300 μM, dark place) | Stomatal Aperture ([1]; addition concentration 200 μM) [μm] | stomatal aperture as compared to without the addition (student's t-test) ([2]; 400 or 600 μM with 10 μM abscisic acid) | Stomatal Aperture ([2]; addition concentration 400 μM with 10 μM abscisic acid) [μm] | Stomatal Aperture ([2]; addition concentration 600 μM with 10 μM abscisic acid) [μm] | stomatal aperture as compared to without the addition ([1]; 100, 200 or 300 μM, dark place) | stomatal aperture as compared to without the addition (student's t-test) ([1]; 100 or 200 μM, dark place) | stomatal aperture as compared to without the addition (student's t-test) ([2]; 300 or 800 μM with 10 μM abscisic acid) | Stomatal Aperture ([2]; addition concentration 800 μM with 10 μM abscisic acid) [μm]
C=C1C[C@@]23CC[C@H]4[C@@](C)(CCC[C@@]4(C)C(=O)O[C@@H]4O[C@H](CO)[C@@H](O)[C@H](O)[C@H]4O)[C@@H]2CC[C@]1(O[C@@H]1O[C@H](CO)[C@@H](O)[C@H](O[C@@H]2O[C@H](CO)[C@@H](O)[C@H](O)[C@H]2O)[C@H]1O[C@@H]1O[C@H](CO)[C@@H](O)[C@H](O)[C@H]1O)C3 [rebaudioside A] | 8.70 ± 0.39 | 9.53 ± 0.45 | 11.46 ± 0.55 | 9.05 ± 0.40 | statistically significant increase in the stomatal aperture | statistically significant increase in the stomatal aperture | 7.74 ± 2.90 | 9.85 ± 2.57 | 9.32 ± 2.69 | – | – | – | – | – | – | – | – | –
C=C1C[C@@]23CC[C@H]4[C@@](C)(CCC[C@@]4(C)C(=O)O)[C@@H]2CC[C@]1(O)C3 [steviol] | – | – | 11.94 ± 0.42 | – | – | – | – | – | – | statistically significant increase in the stomatal aperture | 15.00 ± 0.32 | statistically significant increase in the stomatal aperture | 10.65 ± 0.48 | 13.27 ± 0.49 | – | – | – | –
C=C1C[C@@]23CC[C@H]4[C@@](C)(CCC[C@@]4(C)C(=O)O[C@@H]4O[C@H](CO)[C@@H](O)[C@H](O)[C@H]4O)[C@@H]2CC[C@]1(O[C@@H]1O[C@H](CO)[C@@H](O)[C@H](O)[C@H]1O[C@@H]1O[C@H](CO)[C@@H](O)[C@H](O)[C@H]1O)C3 [stevioside] | – | 6.83 ± 0.23 | 5.81 ± 0.20 | – | – | – | – | 7.03 ± 0.39 | – | – | 7.33 ± 0.31 | – | – | – | an increase in the stomatal aperture | statistically significant increase in the stomatal aperture | statistically significant increase in the stomatal aperture | 6.49 ± 0.32

Source: patent US20230034248A1, “PLANT STOMATA OPENING PROMOTING AGENT” (OAT Agrio Co., Ltd., priority 2019, published 2023)
